Source: the supplement of paper PMC10307832

Columns and labels:
Assay in all cases: relative viability (nuclei count vs DMSO), 5 days (fraction); higher = more cells survive
CUDC-101 + Decitabine = compound: C#Cc1cccc(Nc2ncnc3cc(OC)c(OCCCCCCC(=O)NO)cc23)c1 [CUDC-101] + Nc1ncn([C@H]2C[C@H](O)[C@@H](CO)O2)c(=O)n1 [Decitabine] (partner 2 µM)
How it was run: (§1)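 Relative viability was taken as the ratio of nuclei in treated wells to nuclei in vehicle wells. Lung cancer cell lines in 1536-well plates received compounds by pin tool one day after seeding, either one drug alone or a fixed anchor-drug dose plus five library-drug doses (not always all listed) in √10 steps. Nuclei were counted on 4× images after 5 days of treatment, and values are medians of duplicate plates.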

NVP-TAE684 + Phenformin = compound: COc1cc(N2CCC(N3CCN(C)CC3)CC2)ccc1Nc1ncc(Cl)c(Nc2ccccc2S(=O)(=O)C(C)C)n1 [NVP-TAE684] + N=C(N)NC(=N)NCCc1ccccc1 [Phenformin] (partner 250 µM)
How it was run: as §1

CUDC-101 + Foretinib = compound: C#Cc1cccc(Nc2ncnc3cc(OC)c(OCCCCCCC(=O)NO)cc23)c1 [CUDC-101] + COc1cc2c(Oc3ccc(NC(=O)C4(C(=O)Nc5ccc(F)cc5)CC4)cc3F)ccnc2cc1OCCCN1CCOCC1 [Foretinib] (partner 0.25 µM)
How it was run: as §1

CUDC-101 + Alpelisib = compound: C#Cc1cccc(Nc2ncnc3cc(OC)c(OCCCCCCC(=O)NO)cc23)c1 [CUDC-101] + Cc1nc(NC(=O)N2CCC[C@H]2C(N)=O)sc1-c1ccnc(C(C)(C)C(F)(F)F)c1 [Alpelisib] (partner 2 µM)
How it was run: as §1

Cell Line	relative viability (CUDC-101 + Decitabine; first compound 0.01 µM)	relative viability (CUDC-101 + Decitabine; first compound 0.03162 µM)	relative viability (CUDC-101 + Decitabine; first compound 0.1 µM)	relative viability (CUDC-101 + Decitabine; first compound 0.3162 µM)	relative viability (CUDC-101 + Decitabine; first compound 1 µM)	relative viability (NVP-TAE684 + Phenformin; first compound 0.2 µM)	relative viability (NVP-TAE684 + Phenformin; first compound 0.6325 µM)	relative viability (NVP-TAE684 + Phenformin; first compound 2 µM)	relative viability (CUDC-101 + Foretinib; first compound 0.01 µM)	relative viability (CUDC-101 + Foretinib; first compound 0.03162 µM)	relative viability (CUDC-101 + Foretinib; first compound 0.1 µM)	relative viability (CUDC-101 + Foretinib; first compound 0.3162 µM)	relative viability (CUDC-101 + Foretinib; first compound 1 µM)	relative viability (CUDC-101 + Alpelisib; first compound 0.01 µM)	relative viability (CUDC-101 + Alpelisib; first compound 0.03162 µM)	relative viability (CUDC-101 + Alpelisib; first compound 0.1 µM)	relative viability (CUDC-101 + Alpelisib; first compound 0.3162 µM)	relative viability (CUDC-101 + Alpelisib; first compound 1 µM)
NCI-H647	0.267	0.326	0.308	0.335	0.24	0.309	0.423	0.189	1.16	1.11	1.14	1.21	0.877	1.48	1.14	1.33	1.18	0.794
NCI-H322M	0.65	0.686	0.625	0.651	0.517	0.731	0.705	0.52	0.833	0.706	0.834	0.703	0.503	0.775	0.704	0.725	0.733	0.725
